These results are taken from patent publication USRE38825E1, “Glyphosate tolerant plants” (Monsanto Technology LLC, priority 1990, dated 2005).

This test addresses LBAA glyphosate oxidoreductase variant w1v2w3 (SER84, ARG153, HIS334) (Ochrobactrum sp. G-1, UniProt D2KI28, K153R/S2A). Nature of the test: Kinetic analysis of domain switches, clone w1v2w3. It is filed as biochemical, bacterial isolate LBAA (Pseudomonas strain LBAA). To be noted: substrate glyphosate. The method, then:
The mutagenesis procedure used was that of Mn++-poisoned PCR and the template was a linearized glyphosate oxidoreductase gene plasmid containing the synthetic glyphosate oxidoreductase gene (SEQ ID NO:8). The oligonucleotide primers used were homologous to regions in the vector and flanking the glyphosate oxidoreductase gene. The PCR conditions employed were as follows: 1 minute at 94° C., 2 minutes at 55° C., and 3 minutes at 72° C. and with 35 cycles. A 5:1 ratio of dCTP+dGTP+TTP to dATP was used. The reactions contained MnCl2 at 125, 250, 375, or 500 μM. After the reaction, the amplified product was recloned into a vector containing a weak E. coli promoter. This vector was a pBR327 derivative containing the araBAD promoter and suitable cloning sites. […] Growth rates were determined by measuring A550 over a 96 hour period. […] Protein concentrations were determined using the Bio-Rad protein dye-binding assay. […] Ten minutes was determined to be the optimal time for the enzyme assay using 10 μg lysate. […] Enzyme activity was determined from the amount of glyoxylate-DNPH adduct formed by measuring A520 against a standard of glyoxylate. […] The Km and Vmax were determined from Lineweaver Burk, Eadie-Hofstee and hyperbolic kinetic plots. […]

As for `O=C(O)CNCP(=O)(O)O` [glyphosate, N-phosphonomethyl-glycine], the VmKm turned out to be 0.026.
